# Where “and” joins values, the source holds several entries; their conditions need not be identical. Equal entries are not always repeated. Calls of active or inactive are those of the source.
# How the values were obtained:
# [1] = Luminescence Cell-Based Dose Confirmation HTS to Identify Activators of 5'UTR Stem-Loop Driven Alpha-Synuclein mRNA Translation in H4 Neuroglioblastoma Cells. [Related pubchem assays: 1829 (Project Summary), 1814 (Primary HTS)]; format: functional
# [2] = Luminescence Cell-Based Dose Response HTS to Identify Activators of Luciferase Translation or Activity in H4 […] Cells. [Related pubchem assays: 1829 (Project Summary), 1814 (Primary HTS)]; format: functional
# cells [3] = format: functional, cell-based
# H4 = experiment: Luminescence Cell-Based Dose Response HTS to Identify Activators of 5'UTR Stem-Loop Driven Prion Protein mRNA Translation in H4 Neuroglioblastoma Cells. [Related pubchem assays: 1829 (Project Summary), 1814 (Primary HTS)]; format: functional; details: Homo sapiens
# cells [4] = format: functional, cell-based; remark: listed apart in the source
# Cytochrome P450 2C19 = Cytochrome P450 2C19 (Homo sapiens, UniProt P33261); experiment: Cytochrome panel assay with activity outcomes. Panel member name: p450-cyp2c19 Compounds with AC50 equal or less than 10 uM are considered active; format: functional; details: read-out: AC50
# [5] = DNA binding of candidate compounds, dose response, artefact control for RAD54 inhibitor project, biochemical, fluorescence polarization, cherry-pick (AID 651673); format: functional
# [6] = target: T1, DNA repair and recombination protein RAD54-like (Homo sapiens, UniProt Q92698); experiment: inhibitors of human RAD54 branch migration, confirmation, biochemical, fluorescence, cherry-picked samples, dose series (AID 651657); format: functional
# T1 sequence (Q92698 whole entry): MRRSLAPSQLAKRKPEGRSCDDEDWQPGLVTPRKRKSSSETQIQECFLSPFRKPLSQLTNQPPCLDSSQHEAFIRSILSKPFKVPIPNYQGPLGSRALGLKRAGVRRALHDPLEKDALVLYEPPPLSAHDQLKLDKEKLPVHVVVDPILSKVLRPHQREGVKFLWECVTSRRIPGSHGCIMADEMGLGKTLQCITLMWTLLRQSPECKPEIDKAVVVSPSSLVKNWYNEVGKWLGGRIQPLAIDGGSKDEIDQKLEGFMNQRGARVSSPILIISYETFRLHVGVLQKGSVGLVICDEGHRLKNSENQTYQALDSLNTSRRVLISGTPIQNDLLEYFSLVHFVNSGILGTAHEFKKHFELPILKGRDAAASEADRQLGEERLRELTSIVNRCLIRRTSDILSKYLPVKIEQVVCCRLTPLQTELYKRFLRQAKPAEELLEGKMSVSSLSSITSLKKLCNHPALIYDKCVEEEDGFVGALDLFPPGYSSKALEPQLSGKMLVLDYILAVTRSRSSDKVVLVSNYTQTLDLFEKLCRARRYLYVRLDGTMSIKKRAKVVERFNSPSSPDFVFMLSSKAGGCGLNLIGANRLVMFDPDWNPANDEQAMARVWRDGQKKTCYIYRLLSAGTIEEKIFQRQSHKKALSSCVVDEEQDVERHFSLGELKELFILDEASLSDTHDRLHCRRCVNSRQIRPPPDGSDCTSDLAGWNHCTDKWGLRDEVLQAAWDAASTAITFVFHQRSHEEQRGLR
# Cytochrome P450 2D6 = Cytochrome P450 2D6 (Homo sapiens, UniProt P10635);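 also: CYP2D6 member of a cytochrome P450 panel assay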
# [7] = target: T2, Carboxy-terminal domain RNA polymerase II polypeptide A small phosphatase 1 (Homo sapiens, UniProt Q9GZU7); experiment: inhibitors of CTDSP1, concentration-response testing, biochemical assay, absorbance-based, actives from ultra-high-throughput screening (AID 540297); format: functional
# T2 sequence (Q9GZU7 whole entry): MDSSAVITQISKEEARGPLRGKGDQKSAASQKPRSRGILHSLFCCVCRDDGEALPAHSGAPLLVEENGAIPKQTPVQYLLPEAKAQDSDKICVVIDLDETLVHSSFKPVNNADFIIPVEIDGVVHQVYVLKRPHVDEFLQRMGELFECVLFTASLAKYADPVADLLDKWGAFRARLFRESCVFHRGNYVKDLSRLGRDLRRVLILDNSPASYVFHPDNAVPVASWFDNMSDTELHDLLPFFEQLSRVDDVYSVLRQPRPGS
# [8] = target: T3, Low molecular weight phosphotyrosine protein phosphatase (Homo sapiens, UniProt P24666); format: functional; details: read-out: IC50_Mean
# T3 sequence (P24666 whole entry): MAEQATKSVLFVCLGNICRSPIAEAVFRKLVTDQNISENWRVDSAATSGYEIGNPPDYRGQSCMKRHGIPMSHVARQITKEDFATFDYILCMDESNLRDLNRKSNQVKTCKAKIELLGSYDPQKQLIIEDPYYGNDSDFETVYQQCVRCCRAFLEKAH
# [9] = target: T3, Low molecular weight phosphotyrosine protein phosphatase; format: functional; details: read-out: IC50_Mean; remark: listed apart in the source
# [10] = target: T4, Tyrosine-protein phosphatase non-receptor type 22 (Homo sapiens, UniProt Q9Y2R2); experiment: LYP phosphatase inhibition for selectivity, dose response, selectivity assay for LMPTP inhibitor project, biochemical, fluorescence, LYP catalytic domain (AID 652006); format: functional; details: read-out: IC50_Mean
# T4 sequence (Q9Y2R2 whole entry): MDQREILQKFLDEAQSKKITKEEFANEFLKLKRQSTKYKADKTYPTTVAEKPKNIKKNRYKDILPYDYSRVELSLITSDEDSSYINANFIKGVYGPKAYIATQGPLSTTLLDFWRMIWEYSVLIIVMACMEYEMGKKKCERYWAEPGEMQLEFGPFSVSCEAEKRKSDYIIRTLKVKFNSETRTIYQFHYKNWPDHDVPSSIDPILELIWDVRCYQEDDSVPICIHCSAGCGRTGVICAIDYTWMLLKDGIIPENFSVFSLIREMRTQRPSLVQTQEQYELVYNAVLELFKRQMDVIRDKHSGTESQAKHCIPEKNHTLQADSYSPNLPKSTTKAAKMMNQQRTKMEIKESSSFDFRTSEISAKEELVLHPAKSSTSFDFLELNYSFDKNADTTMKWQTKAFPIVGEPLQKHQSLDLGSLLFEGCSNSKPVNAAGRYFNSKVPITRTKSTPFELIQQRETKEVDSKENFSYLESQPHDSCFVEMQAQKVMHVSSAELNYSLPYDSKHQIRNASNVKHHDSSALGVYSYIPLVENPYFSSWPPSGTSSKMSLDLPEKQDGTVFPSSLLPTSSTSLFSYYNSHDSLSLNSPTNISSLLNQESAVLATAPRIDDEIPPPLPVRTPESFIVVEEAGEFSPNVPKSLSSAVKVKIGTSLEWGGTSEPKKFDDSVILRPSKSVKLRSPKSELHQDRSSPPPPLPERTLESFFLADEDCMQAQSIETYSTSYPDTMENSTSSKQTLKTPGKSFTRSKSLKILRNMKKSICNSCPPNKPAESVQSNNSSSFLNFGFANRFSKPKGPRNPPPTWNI
# Cytochrome P450 2C9 = Cytochrome P450 2C9 (Homo sapiens, UniProt P11712)
# [11] = target: Nuclear receptor subfamily 5 group A member 2 (Homo sapiens, UniProt O00482); format: functional, cell-based;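 also: HEK293T cells transfected with LRH-1 and a StAR promoter luciferase reporter; potency for inhibitors that lower LRH-1 driven reporter light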
# Steroidogenic factor 1 = Steroidogenic factor 1 (Homo sapiens, UniProt Q13285); experiment: Counterscreen for inverse agonists of the liver receptor homolog-1 (LRH-1; NR5A2): Luminescence-based cell-based high throughput dose response assay to identify inverse agonists of the Steroidogenic Factor 1 Nuclear Receptor (SF1; NR5A1).; format: functional
# [12] = StAR promoter reporter inhibition counter-screen, dose response, counter-screen for LRH-1 inverse agonist project, cell-based, luminescence, luciferase reporter (AID 651969); format: functional
# Cryptococcus neoformans [13] = experiment: PubChem AID 686997; format: functional, organism-based
# Cryptococcus neoformans [14] = experiment: Cryptococcus growth inhibition by alamar blue – cell lysis, cherry-picks, replicate tests, mechanism study for C. neoformans antifungal project, dose response (AID 686999); format: functional, organism-based
# Beta-lactamase [15] = target: Beta-lactamase (Salmonella choleraesuis (strain SC-B67), UniProt Q5J463); experiment: Epi-absorbance-based counterscreen for selective VIM-2 inhibitors: dose response biochemical high throughput screening assay to identify inhibitors of TEM-1 serine-beta-lactamase.
# Beta-lactamase [16] = target: T5, Beta-lactamase (Pseudomonas aeruginosa, UniProt Q79MP6); experiment: IMP-1 metallo-beta-lactamase inhibitors, dose response, selectivity assay for VIM-2 inhibitor project, biochemical, epi-absorbance (AID 1920)
# Beta-lactamase [17] = target: T5, Beta-lactamase; experiment: […] counterscreen for selective VIM-2 inhibitors: dose response biochemical high throughput screening assay to identify inhibitors of IMP-1 metallo-beta-lactamase.
# [18] = Counterscreen for […] of the human trace amine associated receptor 1 (TAAR1): Fluorescence-based cell-based high throughput dose response assay to identify nonselective Ga16 agonists.; format: functional
# [19] = Counterscreen for antagonists of the human trace amine associated receptor 1 (hTAAR1): Fluorescence-based cell-based high throughput dose response assay to identify nonselective Ga16 antagonists.; format: functional
# [20] = target: T6, Ubiquitin-conjugating enzyme E2 N (Homo sapiens, UniProt P61088); format: functional;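 also: Dose-response confirmation in a TR-FRET assay detecting UBC13-driven polyubiquitin chain formation, inhibition measured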
# T6 sequence (P61088 whole entry): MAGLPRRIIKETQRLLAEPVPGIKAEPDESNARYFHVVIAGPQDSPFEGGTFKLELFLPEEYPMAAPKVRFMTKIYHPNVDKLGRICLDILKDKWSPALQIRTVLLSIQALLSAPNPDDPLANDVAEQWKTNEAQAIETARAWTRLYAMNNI
# HeLa = experiment: HeLa cell cytotoxicity, dose response, cytotoxicity control, ATP luminescence, cherry-pick samples (AID 687004); format: functional, cell-based; details: Homo sapiens
# [21] = target: DNA repair protein RAD52 homolog (Homo sapiens, UniProt P43351); format: functional, biochemical
# Sequence of DNA repair protein RAD52 homolog (P43351 whole entry): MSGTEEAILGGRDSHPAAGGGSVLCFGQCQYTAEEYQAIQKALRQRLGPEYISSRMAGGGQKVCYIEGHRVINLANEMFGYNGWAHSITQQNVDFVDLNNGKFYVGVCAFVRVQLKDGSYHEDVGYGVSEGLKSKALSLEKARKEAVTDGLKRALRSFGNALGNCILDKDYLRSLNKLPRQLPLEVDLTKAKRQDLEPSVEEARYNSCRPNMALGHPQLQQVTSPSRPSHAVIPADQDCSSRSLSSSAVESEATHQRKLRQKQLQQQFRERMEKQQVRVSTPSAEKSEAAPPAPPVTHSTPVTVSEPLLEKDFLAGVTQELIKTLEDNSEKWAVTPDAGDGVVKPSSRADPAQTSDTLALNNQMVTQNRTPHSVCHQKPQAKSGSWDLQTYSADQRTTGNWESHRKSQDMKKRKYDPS
# Sequence of Cytochrome P450 2C19 (P33261 whole entry): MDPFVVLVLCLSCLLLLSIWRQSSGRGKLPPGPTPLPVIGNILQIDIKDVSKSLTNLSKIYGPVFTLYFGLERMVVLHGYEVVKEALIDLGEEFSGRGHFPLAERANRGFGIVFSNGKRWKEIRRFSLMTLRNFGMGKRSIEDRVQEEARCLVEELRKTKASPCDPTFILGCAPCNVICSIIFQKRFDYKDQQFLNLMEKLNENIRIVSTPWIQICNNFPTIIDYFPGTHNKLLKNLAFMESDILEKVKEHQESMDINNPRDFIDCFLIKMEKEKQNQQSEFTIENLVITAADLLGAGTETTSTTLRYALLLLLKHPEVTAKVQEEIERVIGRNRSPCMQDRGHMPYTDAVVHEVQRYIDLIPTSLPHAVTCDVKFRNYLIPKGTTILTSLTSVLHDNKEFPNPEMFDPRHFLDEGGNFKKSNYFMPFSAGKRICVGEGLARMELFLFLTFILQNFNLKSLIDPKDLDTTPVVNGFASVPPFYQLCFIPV
# T5 sequence (Q79MP6 whole entry): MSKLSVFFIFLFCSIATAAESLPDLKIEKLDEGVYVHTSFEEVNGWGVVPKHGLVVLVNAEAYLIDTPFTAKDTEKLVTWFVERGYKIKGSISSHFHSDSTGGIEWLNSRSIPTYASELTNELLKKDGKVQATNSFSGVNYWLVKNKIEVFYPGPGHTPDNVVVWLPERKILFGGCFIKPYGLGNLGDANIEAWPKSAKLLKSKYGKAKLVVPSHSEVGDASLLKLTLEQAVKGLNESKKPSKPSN
# Sequence of Cytochrome P450 2C9 (P11712 whole entry): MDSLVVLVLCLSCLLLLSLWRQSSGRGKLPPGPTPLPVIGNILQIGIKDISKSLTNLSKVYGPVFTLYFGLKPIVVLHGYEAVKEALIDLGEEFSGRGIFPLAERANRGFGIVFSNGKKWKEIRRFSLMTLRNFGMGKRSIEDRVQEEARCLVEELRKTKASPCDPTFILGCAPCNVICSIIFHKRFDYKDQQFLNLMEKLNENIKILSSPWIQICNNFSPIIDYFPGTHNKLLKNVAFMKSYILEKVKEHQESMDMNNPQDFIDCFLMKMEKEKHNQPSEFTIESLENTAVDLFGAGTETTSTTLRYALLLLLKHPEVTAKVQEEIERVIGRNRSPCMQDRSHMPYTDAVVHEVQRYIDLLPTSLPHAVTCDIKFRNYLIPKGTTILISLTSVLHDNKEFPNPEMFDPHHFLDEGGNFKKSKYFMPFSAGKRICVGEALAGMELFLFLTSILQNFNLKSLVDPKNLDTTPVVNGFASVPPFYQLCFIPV
# Sequence of Beta-lactamase (Salmonella choleraesuis (strain SC-B67), UniProt Q5J463) (Q5J463 whole entry): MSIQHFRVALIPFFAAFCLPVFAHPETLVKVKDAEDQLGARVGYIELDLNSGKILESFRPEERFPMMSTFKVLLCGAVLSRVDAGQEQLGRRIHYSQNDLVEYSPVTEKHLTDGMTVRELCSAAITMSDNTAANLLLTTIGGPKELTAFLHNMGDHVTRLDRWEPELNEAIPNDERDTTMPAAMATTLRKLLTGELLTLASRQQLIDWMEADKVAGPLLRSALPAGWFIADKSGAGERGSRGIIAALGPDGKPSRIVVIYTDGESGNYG
# Sequence of Cytochrome P450 2D6 (P10635 whole entry, the tested form may be a part): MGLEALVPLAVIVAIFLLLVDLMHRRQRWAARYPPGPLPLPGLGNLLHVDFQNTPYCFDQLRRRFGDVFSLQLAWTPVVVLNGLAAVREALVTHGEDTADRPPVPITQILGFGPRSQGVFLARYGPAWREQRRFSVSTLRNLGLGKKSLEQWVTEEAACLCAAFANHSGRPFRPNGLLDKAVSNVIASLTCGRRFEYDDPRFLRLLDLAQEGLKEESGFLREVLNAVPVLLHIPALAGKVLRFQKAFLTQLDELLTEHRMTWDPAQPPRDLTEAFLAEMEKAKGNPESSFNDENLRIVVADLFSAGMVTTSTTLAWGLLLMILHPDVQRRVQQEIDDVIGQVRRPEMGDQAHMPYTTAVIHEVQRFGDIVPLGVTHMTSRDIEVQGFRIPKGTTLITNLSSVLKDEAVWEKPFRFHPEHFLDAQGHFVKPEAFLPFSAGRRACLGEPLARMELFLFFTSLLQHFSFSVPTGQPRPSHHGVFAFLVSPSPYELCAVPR
# Sequence of Nuclear receptor subfamily 5 group A member 2 (O00482 whole entry): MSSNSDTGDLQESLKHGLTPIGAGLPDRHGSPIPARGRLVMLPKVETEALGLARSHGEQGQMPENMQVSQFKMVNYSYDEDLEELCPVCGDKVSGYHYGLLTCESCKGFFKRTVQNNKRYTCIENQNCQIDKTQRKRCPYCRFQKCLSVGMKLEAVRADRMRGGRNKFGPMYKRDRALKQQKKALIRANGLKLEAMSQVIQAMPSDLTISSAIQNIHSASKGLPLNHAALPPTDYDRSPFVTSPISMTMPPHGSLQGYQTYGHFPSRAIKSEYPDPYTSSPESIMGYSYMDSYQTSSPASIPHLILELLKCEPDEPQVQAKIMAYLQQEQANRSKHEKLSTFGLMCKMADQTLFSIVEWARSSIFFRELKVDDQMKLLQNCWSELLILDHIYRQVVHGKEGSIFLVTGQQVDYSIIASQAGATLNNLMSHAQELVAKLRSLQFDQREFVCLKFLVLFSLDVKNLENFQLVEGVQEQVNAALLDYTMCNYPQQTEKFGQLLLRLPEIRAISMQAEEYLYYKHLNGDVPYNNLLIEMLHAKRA
# Sequence of Steroidogenic factor 1 (Q13285 whole entry): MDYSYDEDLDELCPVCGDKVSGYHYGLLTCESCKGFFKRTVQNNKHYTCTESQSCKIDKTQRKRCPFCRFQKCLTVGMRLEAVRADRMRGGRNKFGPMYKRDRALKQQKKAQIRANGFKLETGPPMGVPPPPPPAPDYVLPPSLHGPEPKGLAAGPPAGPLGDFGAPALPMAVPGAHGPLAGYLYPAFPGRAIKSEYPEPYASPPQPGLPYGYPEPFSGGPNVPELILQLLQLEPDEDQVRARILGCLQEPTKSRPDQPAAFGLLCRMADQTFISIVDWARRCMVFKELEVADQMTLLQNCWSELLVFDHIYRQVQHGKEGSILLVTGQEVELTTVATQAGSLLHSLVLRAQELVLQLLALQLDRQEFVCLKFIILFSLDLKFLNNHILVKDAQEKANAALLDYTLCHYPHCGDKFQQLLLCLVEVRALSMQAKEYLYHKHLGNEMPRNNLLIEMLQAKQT
smiles,measurement,setting,value
Cc1cc(C)c2c(N)c3ccccc3nc2n1,EC50,[1],3.6 µM (active)
same,EC50,[2],8.34 µM (active)
same,EC50,cells [3],32.3 µM (active)
same,EC50,H4,> 120 µM (not active)
same,EC50,cells [4],> 350 µM (not active)
same,AC50,Cytochrome P450 2C19,5.62 µM (inconclusive)
same,AC50,[5],41.4 µM (active)
same,AC50,[6],5.7 µM (active)
same,AC50,Cytochrome P450 2D6,20 µM (inconclusive)
O=C(NNC(=O)c1cc2cc3ccccc3nc2s1)c1cccc(Cl)c1,AC50,Cytochrome P450 2C19,5.01 µM (inconclusive)
same,IC50,[7],1.9 µM (active)
same,IC50,[8],10.7 µM (active)
same,IC50,[9],8.67 µM (active)
same,IC50,[10],26.8 µM (inactive)
same,AC50,Cytochrome P450 2C9,1.41 µM (inconclusive)
CCCc1cc(=O)oc2c(C)c(OCC(=O)NCCN3CCOCC3)ccc12,IC50,[11],35.9 µM (inactive)
same,IC50,Steroidogenic factor 1,12.4 µM (inactive)
same,IC50,[12],35.9 µM (inactive)
COC(=O)C1=C(C)N(Cc2ccccc2)C(=S)N[C@H]1c1ccc(Br)cc1,AC50,Cryptococcus neoformans [13],50.4 µM (active) and 14.1 µM (active)
same,AC50,Cryptococcus neoformans [14],42.2 µM (active)
O=C(CSc1nnc(NC(=O)C2CCCCC2)s1)NCc1ccco1,IC50,Beta-lactamase [15],> 59.6 µM (inactive)
same,IC50,Beta-lactamase [16],> 59.6 µM (inactive)
same,IC50,Beta-lactamase [17],> 59.6 µM (inactive)
O=C(CCC(=O)N1CCOCC1)NCCc1ccc(F)cc1,EC50,[18],> 29.9 µM (inactive)
same,IC50,[19],> 29.9 µM (inactive)
CN1CCN(CCCNC(=O)c2ccc(/C=C3\Oc4ccccc4N(Cc4ccccc4F)C3=O)cc2)CC1,IC50,[20],> 20 µM (inactive)
same,AC50,HeLa,17 µM (active)
same,AC50,[21],8.16 µM (active)

# From ChEMBL document CHEMBL1201862, “PubChem BioAssay data set” (2004)
